Data set [1] has as its target T1, CYP2C9*8 (Homo sapiens, UniProt P11712, R150H). To be noted: cited from earlier work.
Data set [2] concerns the target T1, CYP2C9*8. Details: host or cells: human subjects carrying the CYP2C9*8 allele (in vivo phenotyping). The settings on record: CYP2C9*8 allele, cited from earlier work.
On data set [3], the source says:
A total of 226 African American patients having demographic and clinical parameters as depicted in Table 1 were studied.
Patients were enrolled from the pharmacist-managed anticoagulation clinics at the University of Illinois Medical Center at Chicago and at the University of Florida in Gainesville. […] Aquilante, C. […] Pharmacogenomics 8, 1535-44 (2007). Patients with a history of liver dysfunction or serum transaminase levels greater than 3 times the upper limit of normal were excluded.
After obtaining written informed consent and authorization for medical record review, a buccal cell sample was collected for genetic analysis, as previously described. Andrisin, T. E., Humma, L. M. & Johnson, J. A. Collection of genomic DNA by the noninvasive mouthwash method for use in pharmacogenetic studies. Pharmacotherapy 22, 954-60 (2002). Demographic, clinical, and social history were assessed through patient interview and review of the medical record. This study was approved by the Institutional Review Board at each institution.
Genomic DNA was isolated from buccal cells using a commercially available kit (PureGene,® Qiagen, Valencia, Calif.) according to kit manufacturer instructions. The CYP2C9 R144C (*2), […] (*3) and D360E (*5) alleles and VKORC1 −1639G>A genotype were determined as previously described. Aquilante, C. […] Clin Pharmacol Ther 79, 291-302 (2006); Hruska, M. W., Frye, R. F. & Langaee, T. Y. Pyrosequencing method for genotyping cytochrome P450 CYP2C8 and CYP2C9 enzymes. Clin Chem 50, 2392-5 (2004). The VKORC1 −4451A>C, 497G>T, and 3730A>G genotypes, and APOE 112C>T and 158C>T genotypes were determined by PCR and pyrosequencing. PCR and sequencing primers used were per Table 6.
Prior to determination of additional genotypes, genomic DNA was amplified by the whole genome amplification (WGA) technique, using the REPLI-g midi kit (Qiagen). Dean, F. B. et al. Comprehensive human genome amplification using multiple displacement amplification. Proc Natl Acad Sci USA 99, 5261-6 (2002) The fidelity of amplification was verified by comparing genotypes for CYP2C9*2, *3, *5 and VKORC1 −1639G>A determined before and after WGA. […] Reed, M. R. & Coty, W. A. in Microarrays: Preparation, Detection Methods, Data Analysis, and Applications (eds. Dill, K., Liu, R. & Grodzinski, P.) 247-60 (Springer-Verlag/Kluwer, 2009). The CYP2C9*8 genotype was determined by bi-directional DNA sequencing at Agencourt Biosciences after uniplex PCR amplification performed by Osmetech Molecular Diagnostics.
Data are expressed as numbers (percentages), mean±SD, or median (inter-quartile range). Height and weight were used to calculate body surface area (BSA). […] Hardy Weinberg Equilibrium (HWE) assumption was tested by χ^2 analysis. […] Dickmann, L. J. et al. Identification and functional characterization of a new CYP2C9 variant (CYP2C9*5) expressed among African Americans. Mol Pharmacol 60, 382-7 (2001); Allabi, A. C., Gala, J. L. & Horsmans, Y. CYP2C9, CYP2C19, ABCB1 (MDR1) genetic polymorphisms and phenytoin metabolism in a Black Beninese population. Pharmacogenet Genomics 15, 779-86 (2005); Blaisdell, J. et al. Discovery of new potentially defective alleles of human CYP2C9. Pharmacogenetics 14, 527-37 (2004) Carriers of a variant CYP2C9*8 allele were initially analyzed separately because of uncertainty regarding the functional effects of this allele.

Molecules are shown by their SMILES. Where two headings read alike, the source gives them in different places.

Consider three compounds from patent publication US20100130599A1 (priority 2008, published 2010).

Regarding `CCCCc1nc(Cl)c(CO)n1Cc1ccc(-c2ccccc2-c2nnn[nH]2)cc1` [Losartran], the “effect of *8 on in vivo metabolism” value in data set [1] was “little effect”.

In the case of `O=C1NC(=O)C(c2ccccc2)(c2ccccc2)N1` [phenytoin], the “urinary excretion of phenytoin metabolite” value in data set [2] (clinical study) was “reduced urinary excretion”. For the same compound, in data set [2] (in vivo), the “effect of *8 on in vivo metabolism” value was “decreases in vivo metabolism”.

Take `CC(=O)CC(c1ccccc1)c1c(O)c2ccccc2oc1=O` (stereo not drawn) [warfarin]: the “Median (IQR) dose” value in data set [3] (APOE ε2/ε2, n=4) was 35.5 (34.3-38.9) mg/week; in data set [3] (APOE ε2/ε3, n=36), 40.0 (30.0-49.7) mg/week; in data set [3] (APOE ε2/ε4, n=6), 61.3 (38.4-70.0) mg/week; in data set [3] (APOE ε3/ε3, n=102), 40.0 (32.1-52.5) mg/week; in data set [3] (APOE ε3/ε4, n=60) it was 43.8 (32.4-56.3) mg/week; in data set [3] (APOE ε4/ε4, n=9), 45.0 (40.0-52.5) mg/week. The “Median (IQR) dose” value is given as 42.5 (35.0-56.3) mg/week in data set [3] (CYP2C9 *1/*1, n=171); 34.4 (29.5-47.3) mg/week in data set [3] (CYP2C9 *1/*8 or *8/*8, n=24); 33.1 (28.0-40.0) mg/week in data set [3] (CYP2C9 *2, *3, *5, *6, or *11 allele, n=28); 37.5 (28.8-56.3) mg/week in data set [3] (CYP4F2 V433M M/M, n=3); 40.0 (35.3-51.9) mg/week in data set [3] (CYP4F2 V433M V/M, n=26); 41.6 (32.5-55.0) mg/week in data set [3] (CYP4F2 V433M V/V, n=194). Moreover, the “Median (IQR) dose” value in data set [3] (VKORC1 497T > G GG, n=1) is 36.0 — mg/week; in data set [3] (VKORC1 497T > G TG, n=16), 35.0 (27.5-36.3) mg/week; in data set [3] (VKORC1 497T > G TT, n=208), 42.0 (32.5-56.1) mg/week; in data set [3] (VKORC1 −1639G > A GA, n=33), 35.0 (27.5-42.5) mg/week; in data set [3] (VKORC1 −4451C > A AA, n=3) it was 28.0 (26.5-30.3) mg/week; in data set [3] (VKORC1 −4451C > A CA, n=22), 42.5 (31.0-55.6) mg/week. In addition, the “Median (IQR) dose” value is reported as 40.0 (32.5-55.0) mg/week in data set [3] (VKORC1 −4451C > A CC, n=200); 42.0 (32.5-55.0) mg/week in data set [3] (VKORC1.3730A > G AA, n=45); 42.0 (34.0-56.3) mg/week in data set [3] (VKORC1.3730A > G GA, n=121); 37.5 (30.0-47.5) mg/week in data set [3] (VKORC1.3730A > G GG, n=60). Moreover, the “warfarin dose, median (IQR)” value in data set [3] (APOE ε4 carriers) is 45.0 (33.1-56.3) mg/week; in data set [3] (APOE ε4 homozygotes), 45.0 (40.0-52.5) mg/week; in data set [3] (individuals with a CYP2C9*5, *6, *8, or *11 allele, n=40), 35.0 mg/wk; in data set [3] (non-c4 homozygotes) it was 40.0 (32.0-55.0) mg/week; in data set [3] (non-ε4 carriers), 40.0 (32.0-52.5) mg/week. Besides, in data set [3] (all patients (n = 226) on stable warfarin dose, mean ± SD), the “Average INR” value worked out at 2.5 ± 0.3. Also, the Therapeutic warfarin dose in data set [3] (all patients (n = 226), median (IQR)) is 40.0 (32.5-55.0) mg/week. Moreover, the “median daily warfarin dose” value in data set [3] (study population, median (range)) amounted to 5.7 mg.
